Measurements reported in the supplement of paper PMC10307832.

Assays:
Test in all cases: relative viability (nuclei count vs DMSO), 5 days (fraction); higher = more cells survive
BMX-IN-1 + Olaparib = compound: C=CC(=O)Nc1cc(-n2c(=O)ccc3cnc4ccc(-c5ccc(NS(C)(=O)=O)cc5)cc4c32)ccc1C [BMX-IN-1] + O=C(c1cc(Cc2n[nH]c(=O)c3ccccc23)ccc1F)N1CCN(C(=O)C2CC2)CC1 [Olaparib] (partner 8 µM)
In short: (§1)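 A single step with final 0.05% Triton X-100, 1% formaldehyde and 1 ug/ml Hoechst fixed the cells and stained nuclei 5 days after treatment. Lung cancer cell lines in 1536-well plates had been treated by pin tool the day after seeding with one drug alone or a fixed anchor-drug dose plus five library-drug doses (not always all listed) in √10 steps, and nuclei were counted on 4× images. Relative viability is the ratio of nuclei in treated wells to nuclei in vehicle wells, taken as the median of duplicate plates.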

BMX-IN-1 + Lapatinib = compound: C=CC(=O)Nc1cc(-n2c(=O)ccc3cnc4ccc(-c5ccc(NS(C)(=O)=O)cc5)cc4c32)ccc1C [BMX-IN-1] + CS(=O)(=O)CCNCc1ccc(-c2ccc3ncnc(Nc4ccc(OCc5cccc(F)c5)c(Cl)c4)c3c2)o1 [Lapatinib] (partner 2 µM)
In short: as §1

BMX-IN-1 + Pictilisib = compound: C=CC(=O)Nc1cc(-n2c(=O)ccc3cnc4ccc(-c5ccc(NS(C)(=O)=O)cc5)cc4c32)ccc1C [BMX-IN-1] + CS(=O)(=O)N1CCN(Cc2cc3nc(-c4cccc5[nH]ncc45)nc(N4CCOCC4)c3s2)CC1 [Pictilisib] (partner 1 µM)
In short: as §1

Ibrutinib + Pictilisib = compound: C=CC(=O)N1CCC[C@@H](n2nc(-c3ccc(Oc4ccccc4)cc3)c3c(N)ncnc32)C1 [Ibrutinib] + CS(=O)(=O)N1CCN(Cc2cc3nc(-c4cccc5[nH]ncc45)nc(N4CCOCC4)c3s2)CC1 [Pictilisib] (partner 1 µM)
In short: as §1

Cell Line | relative viability (BMX-IN-1 + Olaparib; first compound 0.02 µM) | relative viability (BMX-IN-1 + Olaparib; first compound 0.2 µM) | relative viability (BMX-IN-1 + Olaparib; first compound 0.6325 µM) | relative viability (BMX-IN-1 + Olaparib; first compound 2 µM) | relative viability (BMX-IN-1 + Lapatinib; first compound 0.02 µM) | relative viability (BMX-IN-1 + Lapatinib; first compound 0.2 µM) | relative viability (BMX-IN-1 + Lapatinib; first compound 0.6325 µM) | relative viability (BMX-IN-1 + Lapatinib; first compound 2 µM) | relative viability (BMX-IN-1 + Pictilisib; first compound 0.02 µM) | relative viability (BMX-IN-1 + Pictilisib; first compound 0.2 µM) | relative viability (BMX-IN-1 + Pictilisib; first compound 0.6325 µM) | relative viability (BMX-IN-1 + Pictilisib; first compound 2 µM) | relative viability (Ibrutinib + Pictilisib; first compound 0.005 µM) | relative viability (Ibrutinib + Pictilisib; first compound 0.01581 µM) | relative viability (Ibrutinib + Pictilisib; first compound 0.05 µM) | relative viability (Ibrutinib + Pictilisib; first compound 0.1581 µM) | relative viability (Ibrutinib + Pictilisib; first compound 0.5 µM)
201T | 0.84 | 0.904 | 0.844 | 0.83 | 1.03 | 1.04 | 1.05 | 1.05 | 0.752 | 0.72 | 0.71 | 0.695 | 0.581 | 0.704 | 0.66 | 0.616 | 0.598
A549 | 0.286 | 0.392 | 0.249 | 0.306 | 1.04 | 1.47 | 1.17 | 1.02 | 0.69 | 0.757 | 0.56 | 0.517 | 0.396 | 0.416 | 0.521 | 0.586 | 0.499
A-427 | 0.709 | 0.766 | 0.979 | 0.783 | 1.21 | 0.995 | 1.17 | 1.06 | 0.796 | 0.83 | 0.948 | 0.78 | 0.553 | 0.623 | 0.719 | 0.405 | 0.743
ABC-1 | 0.749 | 1.02 | 0.815 | 0.978 | 1.46 | 1.23 | 1.16 | 1.28 | 0.802 | 0.75 | 0.847 | 0.394 | 0.528 | 0.743 | 0.716 | 0.513 | 0.615
BEN | 1.26 | 1.02 | 1.05 | 1.15 | 0.829 | 0.891 | 0.729 | 0.724 | 0.643 | 0.741 | 0.513 | 0.596 | 0.347 | 0.535 | 0.518 | 0.5 | 0.536
CAL-12T | 0.822 | 0.71 | 0.695 | 0.759 | 0.692 | 0.722 | 0.795 | 0.613 | 0.527 | 0.425 | 0.47 | 0.422 | 0.232 | 0.448 | 0.394 | 0.355 | 0.495
COR-L23 | 0.286 | 0.373 | 0.439 | 0.327 | 1.65 | 1.47 | 1.17 | 0.941 | 1.1 | 1.3 | 0.76 | 0.855 | 0.626 | 0.742 | 0.885 | 0.925 | 0.729
COR-L 105 | 0.735 | 0.689 | 0.791 | 0.641 | 0.327 | 0.33 | 0.376 | 0.371 | 0.383 | 0.4 | 0.481 | 0.4 | 0.316 | 0.418 | 0.488 | 0.341 | 0.325
Calu-6 | 0.533 | 0.656 | 0.607 | 0.565 | 1 | 1.44 | 1.33 | 1.06 | 1.14 | 1.21 | 1.09 | 0.866 | 0.854 | 0.843 | 0.949 | 1.05 | 
ChaGo-K-1 | 0.435 | 0.443 | 0.416 | 0.417 |  |  |  |  | 0.66 | 0.64 | 0.858 | 0.614 | 0.356 | 0.83 | 0.592 |  | 0.956
EBC-1 | 0.734 | 0.689 | 0.779 | 0.762 | 0.243 | 0.181 | 0.206 | 0.168 | 0.249 | 0.303 | 0.382 | 0.255 | 0.31 | 0.436 | 0.378 | 0.456 | 0.321
EKVX | 0.99 | 0.993 | 0.971 | 0.828 | 0.208 | 0.197 | 0.216 | 0.189 | 0.522 | 0.439 | 0.442 | 0.404 | 0.341 | 0.391 | 0.435 | 0.461 | 0.278
EMC-BAC-2 | 0.514 | 0.49 | 0.512 | 0.494 | 0.985 | 0.997 | 0.991 | 0.887 | 0.556 | 0.562 | 0.621 | 0.506 | 0.43 | 0.521 | 0.604 | 0.525 | 0.522
EPLC-272H | 0.823 | 0.834 | 0.509 | 0.677 | 1.03 | 0.929 | 1.14 | 1.08 | 0.35 | 0.31 | 0.304 | 0.377 |  | 0.291 | 0.299 | 0.194 | 0.267
H3255 | 0.584 | 0.588 | 0.548 | 0.628 | 0.207 | 0.206 | 0.207 | 0.222 | 0.437 | 0.461 | 0.592 | 0.488 | 0.389 | 0.397 | 0.263 | 0.415 | 0.14
HARA | 1.01 | 0.859 | 0.936 | 0.734 | 0.997 | 0.842 | 1.01 | 0.69 | 0.4 | 0.284 | 0.482 | 0.397 | 0.185 | 0.515 | 0.383 | 0.412 | 0.232
HCC-15 | 0.645 | 0.827 | 0.706 | 0.787 | 0.933 | 0.955 | 0.985 | 0.984 | 0.721 | 0.818 | 0.798 | 0.844 | 0.646 | 0.678 | 0.731 | 0.361 | 0.711
HCC-44 | 1.02 | 0.994 | 1.03 | 1.07 | 1.07 | 1.28 | 1.22 | 1.11 | 0.732 | 0.687 | 0.836 | 0.622 | 0.593 | 0.467 | 0.527 | 0.599 | 0.694
HCC-78 | 1.09 | 0.744 | 0.804 | 0.913 | 0.812 | 0.835 | 0.663 | 0.878 | 0.214 | 0.18 | 0.242 | 0.249 | 0.199 | 0.202 | 0.177 | 0.159 | 0.172
